Source: patent US10047087B2, “Substituted pyrazolo[1,5-A] pyridine as tropomyosin receptor kinase (TrK) inhibitors” (Dr. Reddy's Laboratories Ltd., priority 2011, dated 2018)

target: T1, TrkA kinase (Homo sapiens, UniProt P04629); test: In vitro TrkA inhibitory activity using TR-FRET assay; format: biochemical; details: 5 ng TrkA, 500 μM ATP, both bounds given in nm, read-out: TrkA inhibitory activity in-vitro IC50
T1 construct: purchased Upstate, USA
Procedure: Determination of In Vitro TrkA Inhibitory Activity Using TR-FRET Assay
Compounds were screened in the TR-FRET assay with TrkA kinase. 5 ng of TrkA [Upstate, USA] kinase was used for assay. The compound was incubated with the kinase for 30 minutes at 20-35° C. After the incubation, substrate mix [40 nM Ultra light poly GT (Perkin Elmer, USA) and 500 μM ATP] was added. The above reaction was stopped by the addition of 40 mM EDTA after 30 minutes. The Eu-labelled antiphospho-tyrosine antibody [Perkin Elmer, USA] was added at 0.5 nM and the fluorescence emission at 615 nm/665 nm [excitation at 340 nm] was measured. The compounds were initially screened at 100 nM, 1 μM and 10 μM concentrations. The potent compounds with >25% inhibition at 1 μM of TrkA were taken for the full dose response studies. The final DMSO concentration in the assay was […]. For IC50 determination, ⅓^rd serial dilution was made from the 20 mM DMSO stock solution. 2 μl of these were transferred to the test wells containing 20 μl reaction mixture [Total reaction volume 22 μl]. The fluorescence was measured in Perkin Elmer Wallac 1420 Multilabel Counter Victor 3. The IC50 was determined by fitting the dose response data to a sigmoidal curve fitting equation using GraphPad Prism software version 5.

T1 sequence (P04629 33-796): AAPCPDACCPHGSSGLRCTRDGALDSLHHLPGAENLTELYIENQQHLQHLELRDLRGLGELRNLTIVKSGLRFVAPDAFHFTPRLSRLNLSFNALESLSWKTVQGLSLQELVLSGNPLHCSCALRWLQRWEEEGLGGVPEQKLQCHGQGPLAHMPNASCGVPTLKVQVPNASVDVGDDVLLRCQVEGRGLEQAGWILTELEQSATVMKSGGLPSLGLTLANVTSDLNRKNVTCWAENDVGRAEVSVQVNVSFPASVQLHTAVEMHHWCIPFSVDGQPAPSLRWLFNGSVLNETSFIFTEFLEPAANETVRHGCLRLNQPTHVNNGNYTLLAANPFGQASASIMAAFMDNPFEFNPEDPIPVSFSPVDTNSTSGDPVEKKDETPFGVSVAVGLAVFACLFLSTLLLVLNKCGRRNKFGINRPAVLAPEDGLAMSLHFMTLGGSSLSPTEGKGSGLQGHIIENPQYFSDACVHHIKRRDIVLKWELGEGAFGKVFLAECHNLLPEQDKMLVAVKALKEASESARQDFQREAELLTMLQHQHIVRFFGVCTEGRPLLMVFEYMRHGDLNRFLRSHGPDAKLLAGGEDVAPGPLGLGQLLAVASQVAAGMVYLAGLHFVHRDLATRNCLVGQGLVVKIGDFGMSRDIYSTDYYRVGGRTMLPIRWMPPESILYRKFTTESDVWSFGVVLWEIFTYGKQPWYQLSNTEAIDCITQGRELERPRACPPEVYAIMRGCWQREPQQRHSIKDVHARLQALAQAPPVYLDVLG

SMILES | IC50 [µM]
O=C(NS(=O)(=O)C1CC1)c1cnn2ccc(N3CCC[C@@H]3c3cc(F)ccc3F)cc12 [Example 5, (R)-N-(cyclopropylsulfonyl)-5-(2-(2,5-difluorophenyl)pyrrolidin-1-yl)pyrazolo[1,5-a]pyridine-3-carboxamide] | 0.1 to 0.5
CC(C)(C)S(=O)(=O)NC(=O)c1cnn2ccc(N3CCC[C@@H]3c3cc(F)ccc3OCC(F)(F)F)cc12 [Example 49, (R)-N-(tert-butylsulfonyl)-5-(2-(5-fluoro-2-(2,2,2-trifluoroethoxy)phenyl)pyrrolidin-1-yl)pyrazolo[1,5-a]pyridine-3-carboxamide] | 0.1 to 0.5
O=C(NS(=O)(=O)C1CCCC1)c1cnn2ccc(N3CCC[C@@H]3c3cc(F)ccc3F)cc12 [Example 13, (R)-N-(cyclopentylsulfonyl)-5-(2-(2,5-difluorophenyl)pyrrolidin-1-yl)pyrazolo[1,5-a] pyridine-3-carboxamide] | 0.1 to 0.5
CC(C)(C)S(=O)(=O)NC(=O)c1cnn2ccc(N3CC(F)(F)CC3c3cc(F)ccc3F)cc12 (single isomer, unassigned) [Example 56] | 0.1 to 0.5
Cn1nccc1S(=O)(=O)NC(=O)c1cnn2ccc(N3CCC[C@@H]3c3cc(F)ccc3F)cc12 [Example 19, (R)-5-(2-(2,5-difluorophenyl)pyrrolidin-1-yl)-N-((1-methyl-1H-pyrazol-5-yl)sulfonyl) pyrazolo[1,5-a]pyridine-3-carboxamide] | 0.1 to 0.5
CC(C)S(=O)(=O)NC(=O)c1cnn2ccc(N3CCC[C@@H]3c3cc(F)cc(F)c3)cc12 [Example 71, (R)-5-(2-(3,5-difluorophenyl)pyrrolidin-1-yl)-N-(isopropylsulfonyl)pyrazolo[1,5-a] pyridine-3-carboxamide] | 0.1 to 0.5
CCC1(S(=O)(=O)NC(=O)c2cnn3ccc(N4CCC[C@@H]4c4cc(F)ccc4F)cc23)CC1 [Example 36, (R)-5-(2-(2,5-difluorophenyl)pyrrolidin-1-yl)-N-((1-ethylcyclopropyl)sulfonyl) pyrazolo[1,5-a]pyridine-3-carboxamide] | 0.1 to 0.5
Cn1cc(S(=O)(=O)NC(=O)c2cnn3ccc(N4CCC[C@@H]4c4cc(F)ccc4F)cc23)cn1 [Example 28, (R)-5-(2-(2,5-difluorophenyl)pyrrolidin-1-yl)-N-((1-methyl-1H-pyrazol-4-yl)sulfonyl) pyrazolo[1,5-a]pyridine-3-carboxamide] | 0.1 to 0.5
CC(C)(C)CS(=O)(=O)NC(=O)c1cnn2ccc(N3CCC[C@@H]3c3cc(F)ccc3F)cc12 [Example 37, (R)-5-(2-(2,5-difluorophenyl)pyrrolidin-1-yl)-N-(neopentylsulfonyl) pyrazolo[1,5-a]pyridine-3-carboxamide] | 0.1 to 0.5

Second part, the compound after the results:

IC50 [µM] | SMILES
0.1 to 0.5 | CN1CCN(S(=O)(=O)NC(=O)c2cnn3ccc(N4CCC[C@@H]4c4cc(F)ccc4F)cc23)CC1 [Example 86, (R)-5-(2-(2,5-difluorophenyl)pyrrolidin-1-yl)-N-((4-methylpiperazin-1-yl)sulfonyl)pyrazolo[1,5-a]pyridine-3-carboxamide]
0.1 to 0.5 | CC(C)(C)S(=O)(=O)NC(=O)c1cnn2ccc(N3CCC[C@@H]3c3cc(F)cc4c3OCCO4)cc12 [Example 130, Sodium (R)-(tert-butylsulfonyl)(5-(2-(7-fluoro-2,3-dihydrobenzo[b][1,4]dioxin-5-yl)pyrrolidin-1-yl)pyrazolo[1,5-a]pyridine-3-carbonyl)amide]
0.1 to 0.5 | O=C(NS(=O)(=O)N1CC[C@H](O)C1)c1cnn2ccc(N3CCC[C@@H]3c3cc(F)ccc3F)cc12 [Example 93, 5-((R)-2-(2,5-difluorophenyl)pyrrolidin-1-yl)-N-(((S)-3-hydroxypyrrolidin-1-yl)sulfonyl)pyrazolo[1,5-a] pyridine-3-carboxamide]

same assay, conditions: 5 ng TrkA, 500 μM ATP, lower bound in nm [sic], upper bound in μM, read-out: TrkA inhibitory activity in-vitro IC50

IC50 [µM] | SMILES
0.5 to 1 | Cc1nc(S(=O)(=O)NC(=O)c2cnn3ccc(N4CCC[C@@H]4c4cc(F)ccc4F)cc23)cn1C [Example 15, (R)-5-(2-(2,5-difluorophenyl)pyrrolidin-1-yl)-N-((1,2-dimethyl-1H-imidazol-4-yl)sulfonyl)pyrazolo[1,5-a] pyridine-3-carboxamide]
0.5 to 1 | O=C(NS(=O)(=O)c1cccnc1)c1cnn2ccc(N3CCC[C@@H]3c3cc(F)ccc3F)cc12 [Example 30, (R)-5-(2-(2,5-difluorophenyl)pyrrolidin-1-yl)-N-(pyridin-3-ylsulfonyl)pyrazolo[1,5-a]pyridine-3-carboxamide]

same assay, conditions: 5 ng TrkA, 500 μM ATP, read-out: TrkA inhibition in-vitro IC50

SMILES | IC50 [µM]
CN(C(=O)c1cnn2ccc(N3CCC[C@@H]3c3cc(F)ccc3F)cc12)S(=O)(=O)c1cccc(C#N)c1 [Example 9, (R)-N-((3-cyanophenyl)sulfonyl)-5-(2-(2,5-difluorophenyl)pyrrolidin-1-yl)-N-methylpyrazolo[1,5-a] pyridine-3-carboxamide] | ≤ 0.05
CC(C)(C)S(=O)(=O)NC(=O)c1cnn2ccc(N3CCC[C@@H]3c3cc(F)ccc3OC3CCOC3)cc12 (stereo partly drawn) [Example 60, N-(tert-butylsulfonyl)-5-((2R)-2-(5-fluoro-2-((tetrahydrofuran-3-yl)oxy)phenyl)pyrrolidin-1-yl)pyrazolo[1,5-a]pyridine-3-carboxamide] | 0.05 to 0.1
CC(C)(C)S(=O)(=O)NC(=O)c1cnn2ccc(N3CCC[C@@H]3c3cc(F)ccc3OC(F)F)cc12 [Example 63, (R)-N-(tert-butylsulfonyl)-5-(2-(2-(difluoromethoxy)-5-fluorophenyl)pyrrolidin-1-yl) pyrazolo[1,5-a]pyridine-3-carboxamide] | 0.05 to 0.1
O=C(NS(=O)(=O)c1ccc(Cl)s1)c1cnn2ccc(N3CCC[C@@H]3c3cc(F)ccc3F)cc12 [Example 31, (R)-N-((5-chlorothiophen-2-yl)sulfonyl)-5-(2-(2,5-difluorophenyl)pyrrolidin-1-yl)pyrazolo [1,5-a]pyridine-3-carboxamide] | ≤ 0.05

Other lines, results leading:

IC50 [µM] | SMILES
≤ 0.05 | CCN(CC)S(=O)(=O)NC(=O)c1cnn2ccc(N3CCC[C@@H]3c3cc(F)ccc3OCCF)cc12 [Example 88, (R)-N-(N,N-diethylsulfamoyl)-5-(2-(5-fluoro-2-(2-fluoroethoxy)phenyl)pyrrolidin-1-yl)pyrazolo[1,5-a]pyridine-3-carboxamide]
≤ 0.05 | O=C(NS(=O)(=O)c1ccc(N2CC[C@H](O)C2)nc1)c1cnn2ccc(N3CCC[C@@H]3c3cc(F)cc(F)c3)cc12 [Example 73, 5-((R)-2-(3,5-difluorophenyl)pyrrolidin-1-yl)-N-((6-((S)-3-hydroxypyrrolidin-1-yl)pyridin-3-yl)sulfonyl)pyrazolo[1,5-a] pyridine-3-carboxamide]
≤ 0.05 | O=C(NS(=O)(=O)N1CCOCC1)c1cnn2ccc(N3CCC[C@@H]3c3cc(F)ccc3F)cc12 [Example 84, (R)-5-(2-(2,5-difluorophenyl)pyrrolidin-1-yl)-N-(morpholinosulfonyl) pyrazolo[1,5-a]pyridine-3-carboxamide]
≤ 0.05 | CCN(CC)S(=O)(=O)NC(=O)c1cnn2ccc(N3CCC[C@@H]3c3cc(F)ccc3OC)cc12 [Example 87, (R)-N-(N,N-diethylsulfamoyl)-5-(2-(5-fluoro-2-methoxyphenyl)pyrrolidin-1-yl) pyrazolo[1,5-a]pyridine-3-carboxamide]
≤ 0.05 | CN(C)S(=O)(=O)NC(=O)c1cnn2ccc(N3CCC[C@@H]3c3cccc(F)c3)c(F)c12 [Example 138, Sodium (R)-(N,N-dimethylsulfamoyl)(4-fluoro-5-(2-(3-fluorophenyl)pyrrolidin-1-yl)pyrazolo[1,5-a]pyridine-3-carbonyl)amide]
≤ 0.05 | CCN(C)S(=O)(=O)NC(=O)c1cnn2ccc(N3CCC[C@@H]3c3cc(F)cc(F)c3OCCF)cc12 [Example 94, (R)-5-(2-(3,5-difluoro-2-(2-fluoroethoxy)phenyl)pyrrolidin-1-yl)-N-(N-ethyl-N-methylsulfamoyl)pyrazolo[1,5-a]pyridine-3-carboxamide]
0.05 to 0.1 | CC1(S(=O)(=O)NC(=O)c2cnn3ccc(N4CCC[C@@H]4c4cc(F)ccc4F)cc23)CC1 [Example 134, Sodium (R)-(5-(2-(2,5-difluorophenyl)pyrrolidin-1-yl)pyrazolo[1,5-a]pyridine-3-carbonyl)((1-methylcyclopropyl)sulfonyl)amide]
≤ 0.05 | CC(C)S(=O)(=O)NC(=O)c1cnn2ccc(N3C[C@@H](F)C[C@@H]3c3cccc(F)c3)c(F)c12 [Example 141, Sodium (4-fluoro-5-((2R,4S)-4-fluoro-2-(3-fluorophenyl)pyrrolidin-1-yl)pyrazolo[1,5-a]pyridine-3-carbonyl) (isopropylsulfonyl)amide]

same assay, conditions: 5 ng TrkA, 500 μM ATP, read-out: TrkA inhibitory activity in-vitro IC50

IC50 [µM] | SMILES
1 to 10 | CC(C)(C)S(=O)(=O)NC(=O)c1cnn2ccc(N3CCCC3c3cc(F)cc4c3OCCO4)cc12 (single isomer, unassigned) [Example 51, N-(tert-butylsulfonyl)-5-(2-(7-fluoro-2,3-dihydrobenzo [b][1,4]dioxin-5-yl)pyrrolidin-1-yl)pyrazolo[1,5-a]pyridine-3-carboxamide]
1 to 10 | O=C(NS(=O)(=O)C1CCNCC1)c1cnn2ccc(N3CCC[C@@H]3c3cc(F)ccc3F)cc12 [Example 17, (R)-5-(2-(2,5-difluorophenyl)pyrrolidin-1-yl)-N-(piperidin-4-ylsulfonyl)pyrazolo[1,5-a] pyridine-3-carboxamide]
